Values quoted from earlier work in patent EP4609858A1, “BUP[…] AND PREPARATION METHOD THEREFOR” (Shenzhen Sciencare Pharmaceutical Co., Ltd., priority 2023, dated 2024).
Structures can show the parent of a compound that is named as a salt. Where two headings read alike, the source gives them in different places.

CO[C@]12CC[C@@]3(C[C@@H]1[C@](C)(O)C(C)(C)C)[C@H]1Cc4ccc(O)c5c4[C@@]3(CCN1CC1CC1)[C@H]2O5 [buprenorphine hydrochloride]
solubility (in alcohol): soluble
solubility (in methanol): freely soluble
solubility (in water): slightly soluble
